The values that follow come from US20230088717A1, “NEW IMMUNOSTIMULATORS AND USE THEREOF IN IMMUNOTHERAPY” (NANTES UNIVERSITÉ, priority 2020, published 2023).

Series [1] concerns HeLa-CD1d spheroid. In words: Cytotoxicity induced by iNKTs on HeLa-CD1d 3D spheroid model. It is filed as cell-based. Particulars: 72 hours, preliminary data (FIG. 9B).
Series [2] has as its system iNKT cells. Nature of the series: iNKT cell activation: cytokine secretion after co-culture with glycolipid-loaded non-transfected (non-CD1d) tumor cells. It is filed as cell-based, human. Particulars: for secretion of cytokines: non-CD1d Hela and HEK293 cells. The method, then: (§1) Classically, CD1d expressing cells are incubated overnight in presence or in the absence of the compound to be assessed, allowing loading on the CD1d molecule. Then, CD1d cells are co-incubated with iNKTs. Six hours of co-culture are sufficient to be able to detect most of the cytokine release (such as IFN-γ, IL-13 and/or IL-2) in the supernatant. Various time of incubation, up to 48H, can be performed depending of the kinetic of some late cytokines (such as IL-10). The quantity or concentration of at least one cytokine is thus measured in the supernatant after an incubation time of from 6 hours to 48 hours. An increased quantity or concentration of at least one cytokine in the presence of the assessed compound by comparison to in its absence means that said compound is a iKNT stimulator.
(§2) To analyse ability of 6-PEG3-NHR-GalCer 2 and 6-Mal-PEGn-GalCer 3 to activate iNKTs, several types of presenting cells were used, such as HEK293 or HeLa cells transfected to express CD1d molecule on their membrane. Non-transfected cells were also used as negative control “at first glance” since presentation of glycolipids to iNKT cells is known to be dependent on CD1d.
(§3) These cells were then used as antigen presenting cells (APC) to compare the iNKT cell activation potency of the canonical α-GalCer (KRN7000) ligand to that of the analogue 6″-modified with an aminoPEG linking arm 6-PEG3-NH2-GalCer 2a. APC were loaded with glycolipids after co-incubation at various concentrations overnight. Next day, cells were washed and co-cultured with iNKTs (2 APC for 1 iNKT). After 6 hours, supernatants were collected, and cytokines secretions (IFN-γ and IL-2 for Th1 panel and IL-13 for Th2 panel) was measured by ELISA (FIGS. 2 and 3)
To confirm this discovery, various other colon, lung, embryonic kidney, cervical cancer cells lines were screened by RT-PCR to define those that express small levels of CD1d and to confirm their ability to self-present the new potent iNKT agonist (see Table 6).
(§4) 6-PEG3-NHR-GalCer analogues of 6-PEG3-NH2-GalCer 2a were evaluated on transfected CD1d and non-CD1d Hela and HEK293 cells for secretion of INF-γ and IL13 stimulation (see FIGS. 10 and 11).

Series [3] relates to iNKT cells. In words: iNKT cell activation: cytokine secretion (ELISA) after co-culture with glycolipid-loaded CD1d-transfected HEK293 or HeLa cells. It is filed as cell-based, human. The following applies: for Delta LogEC50 IFN-γ / Delta LogEC50 IL-2 / Delta LogEC50 IL-13: KRN7000 vs 6-PEG3-NH2-GalCer; for EC50: Homo sapiens, iNKT, 6 h; for EC50 / LogEC50 IFN-γ / LogEC50 IL-2 / LogEC50 IL-13: 6 h co-culture. The protocol:
as §1, §2, §3, §4
For orientation: ELISA stands for enzyme-linked immunosorbent assay.

The test system of series [4] is HeLa-CD1d cells. Nature of the series: Cytotoxicity induced by iNKTs on HeLa-CD1d cells (flow cytometry). The following applies: HeLa CD1d transfected cells, 24 hours co-culture (FIG. 7). It is filed as cell-based. The protocol:
Moreover, 6-PEG3-NH2-GalCer 2a is not only one of a strongest activator of iNKTs cells known for cytokine secretions, but that he is also able to induce a better iNKT cytotoxicity effect than KRN7000. iNKT were co-cultured with HeLa CD1 d transfected cells for 24 hours in presence of various concentration of glycolipids, then, mortality of target HeLa-CD1d cells was analysed by Flow Cytometry.
For orientation: In flow cytometry, cells or beads pass a laser one at a time.

Series [5] has as its target T1, CD1d (Homo sapiens, UniProt P15813).
T1 construct: endogenous in cells; host or cells: HEK293 (non-transfected) and HEK293-CD1d (transfected to express CD1d)
In words: CD1d-dependency of iNKT activation: cytokine secretion in presence of anti-CD1d antibody. The series is classed as cell-based. The protocol: It was then checked whether iNKT cells activation might be provided by a very low expression of CD1d on the proper non-CD1d tumor cells that cannot be detected by flow cytometry. To this aim, the same activation experiments were performed but in presence of an anti-CD1d antibody. HEK293 cells and HEK293-CD1d were loaded with 6-PEG3-NH2-GalCer a2 as described previously. Before co-culture with iNKTs cells, loaded presenting cells were co-incubated with the anti-CD1d antibody for 1 hours, iNKTs were added directly in suspension and co-cultured 6 hours before cytokine analysis in supernatant (ELISA). If activation signal was provided by presentation of the modified glycolipid through CD1d, it was expected to observe a blockage, or at least a decrease, of cytokine secretion after blocking the signal with the anti-CD1d antibody.

For series [6], the system named is iNKT cells in PBMC. Nature of the series: iNKT phenotyping: expansion of iNKT cells in PBMC, CD8+/CD4+. The following applies: PBMC cultured ten days with high dose of glycolipid (FIG. 8). It is filed as cell-based, human. The protocol:
Comparative study was run to establish either a CD4 or CD8 orientation of the immune response can be induced using 6-PEG3-NH2-GalCer 2a vs KRN7000 (see FIG. 8). PBMC were cultured in presence of an high dose of KRN or 6-PEG3-NH2-GalCer 2a, after ten days, phenotype of iNKTs was analysed by Flow Cytometry.

Where [7] appears, read: HEK293 (embryonic kidney), non transfected, as presenting cells.
The mark [8] stands for this setting: HeLa (cervix), non transfected, as presenting cells.
Where [9] appears, read: Meso13 (mesotheliome) as presenting cells.
[10] abbreviates: Meso34 (mesotheliome) as presenting cells.
Where [11] appears, read: Meso225 (mesotheliome) as presenting cells.
The mark [12] stands for this setting: SW1116 (colon) as presenting cells.

Read-outs that look alike come from different tables or passages of the source. A value given as a limit tells only on which side of the number the result lay.

T1 sequence (P15813 20-335): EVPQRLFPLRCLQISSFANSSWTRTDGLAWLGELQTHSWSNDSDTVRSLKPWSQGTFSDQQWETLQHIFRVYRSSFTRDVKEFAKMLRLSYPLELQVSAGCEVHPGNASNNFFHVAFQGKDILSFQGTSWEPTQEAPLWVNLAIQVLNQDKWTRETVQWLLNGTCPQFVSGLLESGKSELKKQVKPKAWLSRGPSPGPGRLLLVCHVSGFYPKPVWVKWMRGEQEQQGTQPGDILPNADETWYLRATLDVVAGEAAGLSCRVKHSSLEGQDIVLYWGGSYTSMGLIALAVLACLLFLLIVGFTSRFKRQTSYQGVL
T1 sequence (P61769 21-119 partner): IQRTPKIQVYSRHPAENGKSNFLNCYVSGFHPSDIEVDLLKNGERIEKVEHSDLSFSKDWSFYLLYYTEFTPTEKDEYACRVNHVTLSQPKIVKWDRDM

Turning to `CCCCCCCCCCCCCCCCCCCCCCCCCC(=O)N[C@@H](CO[C@H]1OC(COC(=O)NCCOCCOCCOCCN)[C@H](O)C(O)[C@@H]1O)[C@H](O)[C@H](O)CCCCCCCCCCCCCC` (some centres unmarked) [6-PEG3-NH2-GalCer 2a], in series [1], the “induction of cell death compared with KRN7000” value is reported as “more efficient than KRN7000 to induce cell death”. For the same compound, the “IFN-γ secretion 10^−7M” value in series [2] (HCT116 (colon) as presenting cells) is “Low”; in series [2] (setting [7]), “High”; in series [2] (setting [8]) it was “High”; in series [2] (setting [9]), “High”; in series [2] (setting [10]), “High”; in series [2] (setting [11]), “High”. In addition, in series [2] (setting [12]), the “IFN-γ secretion 10^−7M” value is recorded as “High”. Further, the “secretion of cytokines” value in series [2] is given as “significant dose response secretion of cytokines”. In series [3] (CD1d-transfected HEK293 / HeLa cells), the “cytokine secretion / iNKT activation potency relative to KRN7000” value is reported as around 100 fold. The entries for the “Delta LogEC50 IFN-γ” value in series [3] (HEK293-CD1d) and in series [3] (HeLa-CD1d) were 2.333 and 1.877, respectively. The “Delta LogEC50 IL-2” value turned out to be 1.55 in series [3] (HEK293-CD1d) and 1.495 in series [3] (HeLa-CD1d). The “Delta LogEC50 IL-13” value came out at 2.534 in series [3] (HEK293-CD1d) and 2.089 in series [3] (HeLa-CD1d). For the same compound, the EC50 is 16.6 pM in series [3] (HEK293-CD1d presenting cells, read-out: LogEC50 IFN-γ (converted)); 58.9 pM in series [3] (HEK293-CD1d presenting cells, read-out: LogEC50 IL-2 (converted)); 32.4 pM in series [3] (HEK293-CD1d presenting cells, read-out: LogEC50 IL-13 (converted)); 29.5 pM in series [3] (HeLa-CD1d presenting cells, read-out: LogEC50 IFN-γ (converted)); 15.5 pM in series [3] (HeLa-CD1d presenting cells, read-out: LogEC50 IL-2 (converted)); 117 pM in series [3] (HeLa-CD1d presenting cells, read-out: LogEC50 IL-13 (converted)). For the same compound, the “efficiency to induce iNKT cytotoxicity relative to KRN7000” value in series [4] is recorded as at least 10 fold. The results for the “inhibition of cytokine (IL-2) secretion by anti-CD1d antibody” value in series [5] (CD1d-HEK293 positive cells (FIG. 5A)) and in series [5] (non transfected (non CD1d) HEK293 cells (FIG. 5B)) were “only an incomplete inhibition” and “almost completely eliminated”, respectively. In addition, the “CD8+ / CD4+ orientation of the iNKT response” value in series [6] is on record as “induces a higher cytotoxic CD8+ response from PBMC cells than KRN7000”.

On to `CCCCCCCCCCCCCCCCCCCCCCCCCC(=O)N[C@@H](CO[C@H]1OC(COC(=O)NCCOCCOCCOCCNC(=O)CCOCCOCCOCCOCCOCCOCCNC(=O)CCN2C(=O)C=CC2=O)[C@H](O)C(O)[C@@H]1O)[C@H](O)[C@H](O)CCCCCCCCCCCCCC` (some centres unmarked) [6-Mal-PEG6-GalCer 3a], for which, in series [3] (general statement, presenting cells not specified at the place), the “iNKT activation potency (cytokine release) relative to KRN7000” value is recorded as around 10 fold.

For `CCCCCCCCCCCCCCCCCCCCCCCCCC(=O)N[C@@H](CO[C@H]1O[C@H](CO)[C@H](O)[C@H](O)[C@H]1O)[C@H](O)[C@H](O)CCCCCCCCCCCCCC` [KRN7000, reference compound], the “IFN-γ secretion 10^−7M” value in series [2] (setting [7]), in series [2] (setting [8]), in series [2] (setting [9]), in series [2] (setting [10]), in series [2] (setting [11]) and in series [2] (setting [12]) was “Low” in each case. For the same compound, the “secretion of cytokines” value in series [2] is on record as “very poorly active or ineffective”. The “LogEC50 IFN-γ” value in series [3] (HEK293-CD1d presenting cells) is on record as −8.447; in series [3] (HeLa-CD1d presenting cells), −8.653. For the same compound, the “LogEC50 IL-2” value is given as −8.680 in series [3] (HEK293-CD1d presenting cells) and −9.315 in series [3] (HeLa-CD1d presenting cells). The “LogEC50 IL-13” value in series [3] (HEK293-CD1d presenting cells) is −7.956; in series [3] (HeLa-CD1d presenting cells), −7.841. Also, the “CD8+ / CD4+ orientation of the iNKT response” value in series [6] was “seems to not distinguish CD4+ to CD8+ cells stimulation”.
